Data as given in patent US20100331269A1, “TRITERPENES DERIVATIVES AND USES THEREOF AS ANTITUMOR AGENTS OR ANTI-INFLAMMATORY AGENTS” (priority 2006, published 2010).

What was measured:
[1] = tested on: A-549 human lung carcinoma cells; assay: Cytotoxicity, resazurin metabolism assay, A-549; assay type: cell-based; conditions: 48 h, mean ± SD
How it was run: (§1)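 Cells plated at 5×10^3/well, adhered 16 h, then exposed to increasing compound concentrations (DMSO) for 48 h. Viability by resazurin reduction, fluorescence ex 530/em 590 nm, blank-subtracted versus control wells; IC50 as mean±SD from three experiments in triplicate.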

[2] = tested on: PC-3 human prostate adenocarcinoma cells; assay: Cytotoxicity, resazurin metabolism assay, PC-3; assay type: cell-based; conditions: mean ± SD
Excerpt: (§2) Human lung carcinoma (A-549), human colon adenocarcinoma (DLD-1), human normal fibroblasts (WS1), mice melanoma (B16-F1), Human glioma (U-251), Human hepatocellular carcinoma (HEP G2), Human prostate adenocarcinoma (PC-3), Human ovary teratocarcinoma metastatic (PA-1), Human breast adenocarcinona metastatic (MDA-MB-231), Human breast adenocarcinoma (MCF-7) and Human malignant melanoma (SK-MEL-2) cell lines were obtained from the American Type Culture Collection (ATCC). All cell lines were cultured in minimum essential medium containing Earle's salts and L-glutamine (Mediatech Cellgro, Va.), to which was added 10% fetal bovine serum (Hyclone), vitamins (1×), penicillin (100 I.U./mL) and streptomycin (100 μg/mL), essential amino acids (1×) and sodium pyruvate (1×) (Mediatech Cellgro, Va.). Cells were kept at 37° C. in a humidified environment containing 5% CO2.
(§3) Exponentially growing cells were plated in 96-well microplates (Costar, Corning Inc.) at a density of 5×10^3 cells per well in 100 μL of culture medium and were allowed to adhere for 16 hours before treatment. Increasing concentrations of each compound in DMSO (Sigma-Aldrich) were then added (100 μL per well) and the cells were incubated for 48 h. […] Cytotoxicity was assessed using resazurin (O'Brien, J. et al., Eur. J. Biochem. 2000, 267, 5421-5426) on an automated 96-well Fluoroskan Ascent F1™ plate reader (Labsystems) using excitation and emission wavelengths of 530 nm and 590 nm, respectively. Fluorescence was proportional to the cellular metabolic activity in each well. Survival percentage was defined as the fluorescence in experimental wells compared to that in control wells after subtraction of blank values. Each experiment was carried out three times in triplicata. IC50 results were expressed as mean±standard deviation.
(§4) Compounds presented in Table 5 below were also tested in the following tumour cell lines: U-251 (Human glioma), HEP G2 (Human hepatocellular carcinoma), PC-3 (Human prostate adenocarcinoma), PA-1 (Human ovary teratocarcinoma metastatic), MDA-MB-231 (Human breast adenocarcinona metastatic), MCF-7 (Human breast adenocarcinoma) and SK-MEL-2 (Human malignant melanoma).

[3] = tested on: SK-Mel-2 human melanoma cells; assay: Cytotoxicity, resazurin metabolism assay, SK-Mel-2; assay type: cell-based; conditions: mean ± SD
Excerpt: as §2, §3, §4

[4] = Determination of the maximum tolerated dose (MTD) after a single IP injection; assay type: in vivo, mice; conditions: for CSS Closed eyes / CSS Diarrhea / CSS Lethargy / CSS Rough coat / CSS Total / Number of deaths: 5 mice
Protocol: Groups of five mice (Charles River) received a single IP injection of 3-O-α-L-rhamnopyranoside betulinic acid (22) in DMSO at doses of 50, 100, 250 and 500 mg/kg of body weight. […] A group of five control mice received the vehicle (DMSO). […] For each animal, a score was calculated based on the absence (value 0) or presence (value 1) of diarrhoea, lethargy, rough coat and closed eyes. A clinical state score (CSS) was then calculated per group by summing individual scores. All the mice were weighed daily during 3 days following the injection. The maximal weight loss was determined 24 hours and 3 days following the injection. The MTD was defined as the highest single dose that met all the following criteria: 1) zero death per group; 2) maximal weight loss 20% in non-tumour bearing animals; and 3) CSS value lower than 15.

[5] = tested on: B16-F1 mouse melanoma cells; assay: Cytotoxicity, resazurin metabolism assay, B16-F1; assay type: cell-based; conditions: 48 h, mean ± SD
How it was run: as §1

[6] = tested on: DLD-1 human colorectal adenocarcinoma cells; assay: Cytotoxicity, resazurin metabolism assay, DLD-1; assay type: cell-based; conditions: 48 h, mean ± SD
How it was run: as §1

[7] = tested on: A-549 cells; assay: Cytotoxicity, Hoechst DNA assay, A-549; assay type: cell-based, human; conditions: ± SD
How it was run: (§5)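 Cells grown at 37 °C, 5% CO2, in MEM with 10% FBS. Compound cytotoxicity was measured by Hoechst DNA staining. Activity is expressed as IC50, the concentration inhibiting 50% of cell growth.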

[8] = tested on: U-251 human glioma cells; assay: Cytotoxicity, resazurin metabolism assay, U-251; assay type: cell-based; conditions: mean ± SD
Excerpt: as §2, §3, §4

[9] = tested on: WS-1 human normal skin fibroblasts; assay: Cytotoxicity, resazurin metabolism assay, WS-1; assay type: cell-based; conditions: 48 h, mean ± SD
How it was run: as §1

[10] = Toxicity of treatment by body weight of tumour-bearing mice; conditions: Lewis lung cancer-bearing mice, IP treatment, day 13
Excerpt: Individual dose were based on the body weight of each mouse.

[11] = tested on: DLD-1 cells; assay: Cytotoxicity, Hoechst DNA assay, DLD-1; assay type: cell-based, human; conditions: ± SD
How it was run: as §5

[12] = tested on: MCF-7 human breast adenocarcinoma cells; assay: Cytotoxicity, resazurin metabolism assay, MCF-7; assay type: cell-based; conditions: mean ± SD
Excerpt: as §2, §3, §4

[13] = tested on: MDA-MB-231 human breast adenocarcinoma cells; assay: Cytotoxicity, resazurin metabolism assay, MDA-MB-231; assay type: cell-based; conditions: mean ± SD
Excerpt: as §2, §3, §4

[14] = tested on: WS-1 cells; assay: Cytotoxicity, Hoechst DNA assay, WS-1; assay type: cell-based, human; conditions: ± SD
How it was run: as §5

## C=C(C)[C@@H]1CC[C@]2(C(=O)O)CC[C@]3(C)[C@H](CC[C@@H]4[C@@]5(C)CC[C@H](O[C@@H]6O[C@@H](C)[C@H](O)[C@@H](O)[C@H]6O)C(C)(C)[C@@H]5CC[C@]43C)[C@@H]12 [Compound 22, 3-O-α-L-Rhamnopyranoside of betulinic acid]
[1]
  IC50: 2.6 ± 0.6 µM
[2]
  IC50: 20 ± 6 µM
[3]
  IC50: 20 ± 7 µM
[4]; 50 mg/kg single IP
  Max. weight loss after 24 hours: 11%
  Max. weight loss after 3 days: 0%
  CSS Closed eyes: 0
  CSS Diarrhea: 0
  CSS Lethargy: 0
  CSS Rough coat: 0
  CSS Total: 0
  Number of deaths: 0
[4]; 100 mg/kg single IP
  Max. weight loss after 24 hours: 14%
  Max. weight loss after 3 days: 0%
  CSS Closed eyes: 0
  CSS Diarrhea: 0
  CSS Lethargy: 0
  CSS Rough coat: 0
  CSS Total: 0
  Number of deaths: 0
[4]; 250 mg/kg single IP
  Max. weight loss after 24 hours: 9%
  Max. weight loss after 3 days: 0%
  CSS Closed eyes: 5
  CSS Diarrhea: 0
  CSS Lethargy: 0
  CSS Rough coat: 5
  CSS Total: 10
  Number of deaths: 0
[4]; 500 mg/kg single IP
  Max. weight loss after 24 hours: 11%
  Max. weight loss after 3 days: 0%
  Rough coat and closed eyes observed, share of the mice: 100%
  CSS Closed eyes: 5
  CSS Diarrhea: 5
  CSS Lethargy: 2
  CSS Rough coat: 5
  CSS Total: 17
  Number of deaths: 0
[4]; 60 kg human
  Calculated dose for an average human weighting 60 kg: 139.8 mg
[4]; all tested doses (50-500 mg/kg), single IP
  Body weight loss after 24 h: 9-14%
[4]; all tested doses, single IP
  Mortality: no mortality
  Weight loss after 3 days (returned to initial weight): 0%
[4]; human equivalent dose divided by 10
  Calculated MTD (human, after security factor of 10): 2.33 mg/kg
[4]; mice, single IP injection in DMSO
  MTD (maximum tolerated dose): 250 mg/kg
[4]; mouse MTD 250 mg/kg divided by conversion factor 12.3
  MTD equivalent in human (human equivalent dose): 20.33 mg/kg
[5]
  IC50: 3.9 ± 0.4 µM
[6]
  IC50: 3.9 ± 0.4 µM
[7]
  IC50: 2.6 ± 0.3 µM
[8]
  IC50: 20 ± 2 µM
[9]
  IC50: 31 ± 3 µM
[10]
  Toxicity / body weight loss compared with controls: did not show any sign of toxicity or body weight loss
[11]
  IC50: 3.4 ± 0.5 µM
[12]
  IC50: 16 ± 2 µM
[13]
  IC50: 19 ± 2 µM
[14]
  IC50: 38 ± 6 µM
